We go through 18 molecules from patent publication US9409952B2, “Peptide-compound cyclization method” (Chugai Seiyaku Kabushiki Kaisha, priority 2011, dated 2016).

The nature of series [1]: Metabolic stability in human hepatic microsome. Type of series: in vitro ADME. Conditions: microsomes.
Series [2] is described as follows: PAMPA (parallel artificial membrane permeability assay). Type of series: in vitro ADME. The conditions noted are these: PAMPA. Put shortly: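 Artificial membrane was 10% (w/v) egg lecithin plus 0.5% (w/v) cholesterol in dodecane on a PVDF filter. A 10 mM DMSO stock was added at 0.5% (v/v) to donor buffer (50 mM MOPSO, pH 6.5, 5.0% glycocholic acid). After 18 h at 37 °C, LC/MS or LC/UV gave donor and acceptor levels for Pe.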

Setting [3] is: pH 7.4, human hepatic microsome, NADPH(+), read-out: CL NADPH(+).
[4] abbreviates: membrane permeation rate (Pe), 50 mM MOPSO buffer pH 6.5 with 5.0% glycocholic acid, 37° C., 18 hours, read-out: iPAMPA Pe.

Like-named read-outs stand apart in the source and are kept apart here. Starred links: 1 amine or outer side, 2 acyl side, 3 side chain; linkers in the order of their positions; H or OH if unused. Positions of bridges follow the written chain, without caps; N, C: chain ends. Non-standard residues stand in square brackets, D forms with d. Residues, ends and D or L forms follow the SMILES beside them. *: point of attachment. NMeF = CN[C@@H](Cc1ccccc1)C(=O)O; NMeGABA = CN(CCCC(=O)[*:2])[*:1]; NMeI = CC[C@H](C)[C@H](NC)C(=O)O; NMeβAla = CN(CCC(=O)[*:2])[*:1]; NMeL = CN[C@@H](CC(C)C)C(=O)O; NMeV = CN[C@H](C(=O)O)C(C)C; NMeA = CN[C@@H](C)C(=O)O; Piperidide = C1CCN(*)CC1; dNMeA = CN[C@H](C)C(=O)O; Sar = CNCC(=O)O; tBu = CC(C)(C)*

`CC(C)C[C@H]1C(=O)N[C@@H]([C@@H](C)O)C(=O)N(C)[C@@H](Cc2ccccc2)C(=O)N(C)[C@@H](CC(C)C)C(=O)NCC(=O)N(C)[C@@H](C(C)C)C(=O)N[C@@H](Cc2ccccc2)C(=O)N[C@H](C(=O)N2CCCCC2)CC(=O)N(C)[C@H](C)C(=O)N[C@@H](COC(C)(C)C)C(=O)N1C` [DP-260] ([dNMeA]S(tBu)[NMeL]T[NMeF][NMeL]G[NMeV]FD-Piperidide; lactam N-10): the microsomal CLint at 1 uM in series [1] (setting [3]) amounted to 259 µL/min/mg. For the same molecule, in series [2] (setting [4]), the Papp at 18 hours, 50 µM was 44 ×10⁻⁶ cm/s.
Consider `CC[C@H](C)[C@@H]1NC(=O)[C@H](C)N(C)C(=O)CCCN(C)C(=O)C[C@@H](C(=O)N2CCCCC2)NC(=O)[C@H](CC(C)C)N(C)C(=O)[C@H](C)N(C)C(=O)[C@H]([C@@H](C)O)NC(=O)[C@H](Cc2ccccc2)N(C)C(=O)[C@H](Cc2ccccc2)N(C)C(=O)[C@H](CC(C)C)N(C)C1=O` [DP-261] ([NMeGABA][NMeA]I[NMeL][NMeF][NMeF]T[NMeA][NMeL]D-Piperidide; lactam N-10), for which the microsomal CLint at 1 uM in series [1] (setting [3]) stood at 84 µL/min/mg. In addition, the Papp at 18 hours, 50 µM in series [2] (setting [4]) turned out to be 27 ×10⁻⁶ cm/s.
Taken in the same sequence, the figures for `CC[C@H](C)[C@H]1C(=O)N(C)[C@@H](CC(C)C)C(=O)N[C@H](C(=O)N2CCCCC2)CC(=O)N(C)CCCC(=O)N[C@@H]([C@@H](C)O)C(=O)N(C)[C@@H](C)C(=O)N(C)[C@@H](Cc2ccccc2)C(=O)N(C)[C@@H](Cc2ccccc2)C(=O)N(C)[C@@H](CC(C)C)C(=O)NCC(=O)N1C` [DP-262] ([NMeGABA]T[NMeA][NMeF][NMeF][NMeL]G[NMeI][NMeL]D-Piperidide; lactam N-10) were 94 µL/min/mg and 38 ×10⁻⁶ cm/s.
The like results for `CC(C)C[C@H]1C(=O)N(C)[C@@H](Cc2ccccc2)C(=O)N(C)[C@@H](CC(C)C)C(=O)N[C@H](C(=O)N2CCCCC2)CC(=O)N[C@H](C)C(=O)N[C@@H](C)C(=O)N[C@@H]([C@@H](C)O)C(=O)N(C)[C@@H](C)C(=O)N[C@@H](Cc2ccccc2)C(=O)N1C` [DP-263] ([dA]AT[NMeA]F[NMeL][NMeF][NMeL]D-Piperidide; lactam N-9) were, in that order, 136 µL/min/mg and 34 ×10⁻⁶ cm/s.
Taken in the same sequence, the figures for `CC(C)C[C@@H]1NC(=O)[C@H](CC(C)C)N(C)C(=O)[C@@H](C(C)C)NC(=O)C[C@@H](C(=O)N2CCCCC2)NC(=O)[C@H](CC(C)C)N(C)C(=O)[C@H](Cc2ccccc2)N(C)C(=O)[C@H](C)N(C)C(=O)[C@H]([C@@H](C)O)NC(=O)[C@H](Cc2ccccc2)N(C)C1=O` [DP-264] ([dV][NMeL]L[NMeF]T[NMeA][NMeF][NMeL]D-Piperidide; lactam N-9) were 94 µL/min/mg and 37 ×10⁻⁶ cm/s.
With `CC(C)C[C@H]1C(=O)N[C@@H](COC(C)(C)C)C(=O)N[C@H](C(=O)N2CCCCC2)CC(=O)N[C@H](C(C)C)C(=O)N(C)[C@@H](Cc2ccccc2)C(=O)N(C)[C@@H](C)C(=O)N(C)[C@@H](CC(C)C)C(=O)N[C@@H]([C@@H](C)O)C(=O)N(C)[C@@H](C)C(=O)N1C` [DP-266] ([dV][NMeF][NMeA][NMeL]T[NMeA][NMeL]S(tBu)D-Piperidide; lactam N-9), in series [1] (setting [3]), the microsomal CLint at 1 uM worked out at 134 µL/min/mg. Moreover, the Papp at 18 hours, 50 µM in series [2] (setting [4]) amounted to 43 ×10⁻⁶ cm/s.
The like results for `CC(C)C[C@H]1C(=O)N[C@@H](COC(C)(C)C)C(=O)N[C@H](C(=O)N2CCCCC2)CC(=O)N(C)[C@@H](C)C(=O)N(C)[C@@H](C)C(=O)N(C)[C@@H](Cc2ccccc2)C(=O)N(C)[C@@H](CC(C)C)C(=O)N[C@@H]([C@@H](C)O)C(=O)N(C)[C@@H](C)C(=O)N1C` [DP-267] ([NMeA][NMeA][NMeF][NMeL]T[NMeA][NMeL]S(tBu)D-Piperidide; lactam N-9) were, in that order, 75 µL/min/mg and 25 ×10⁻⁶ cm/s.
The like results for `CC(C)C[C@@H]1NC(=O)[C@H](Cc2ccccc2)N(C)C(=O)CCN(C)C(=O)C[C@@H](C(=O)N2CCCCC2)NC(=O)[C@H](CC(C)C)N(C)C(=O)[C@H](C)N(C)C(=O)[C@H]([C@@H](C)O)NC(=O)[C@H](CC(C)C)N(C)C(=O)[C@H](Cc2ccccc2)N(C)C1=O` [DP-268] ([NMeβAla][NMeF]L[NMeF][NMeL]T[NMeA][NMeL]D-Piperidide; lactam N-9) were, in that order, 508 µL/min/mg and 50 ×10⁻⁶ cm/s.
Taken in the same sequence, the figures for `CC(C)C[C@H]1C(=O)N[C@@H](COC(C)(C)C)C(=O)N[C@H](C(=O)N2CCCCC2)CC(=O)N(C)CCC(=O)N(C)[C@@H](C)C(=O)N(C)[C@@H](Cc2ccccc2)C(=O)N(C)[C@@H](CC(C)C)C(=O)N[C@@H]([C@@H](C)O)C(=O)N(C)[C@@H](C)C(=O)N1C` [DP-269] ([NMeβAla][NMeA][NMeF][NMeL]T[NMeA][NMeL]S(tBu)D-Piperidide; lactam N-9) were 58 µL/min/mg and 11 ×10⁻⁶ cm/s.
As for `CC(C)C[C@H]1C(=O)N(C)[C@@H](Cc2ccccc2)C(=O)N[C@H](C(=O)N2CCCCC2)CC(=O)N(C)[C@H](C)C(=O)N[C@@H]([C@@H](C)O)C(=O)N(C)[C@@H](C)C(=O)N(C)[C@@H](Cc2ccccc2)C(=O)N[C@@H](COC(C)(C)C)C(=O)NCC(=O)N1C` [DP-270] ([dNMeA]T[NMeA][NMeF]S(tBu)G[NMeL][NMeF]D-Piperidide; lactam N-9), the microsomal CLint at 1 uM in series [1] (setting [3]) came to 79 µL/min/mg. Besides, the Papp at 18 hours, 50 µM in series [2] (setting [4]) was found to be 22 ×10⁻⁶ cm/s.
Regarding `CC(C)C[C@H]1C(=O)N(C)[C@@H](Cc2ccccc2)C(=O)NCC(=O)N[C@H](C(=O)N2CCCCC2)CC(=O)N(C)CC(=O)N[C@@H]([C@@H](C)O)C(=O)N(C)[C@@H](C)C(=O)N[C@@H](COC(C)(C)C)C(=O)N(C)[C@@H](Cc2ccccc2)C(=O)N1C` [DP-271] ([Sar]T[NMeA]S(tBu)[NMeF][NMeL][NMeF]GD-Piperidide; lactam N-9), the microsomal CLint at 1 uM in series [1] (setting [3]) stood at 38 µL/min/mg. In series [2] (setting [4]), the Papp at 18 hours, 50 µM was 10 ×10⁻⁶ cm/s.
With `CC[C@H](C)[C@H]1C(=O)N[C@H](C(=O)N2CCCCC2)CC(=O)N(C)CCCC(=O)N(C)[C@@H](Cc2ccccc2)C(=O)N[C@@H]([C@@H](C)O)C(=O)N(C)CC(=O)N[C@@H](COC(C)(C)C)C(=O)N(C)[C@@H](CC(C)C)C(=O)N(C)[C@@H](CC(C)C)C(=O)N1C` [DP-272] ([NMeGABA][NMeF]T[Sar]S(tBu)[NMeL][NMeL][NMeI]D-Piperidide; lactam N-9), the microsomal CLint at 1 uM in series [1] (setting [3]) was 82 µL/min/mg. Besides, the Papp at 18 hours, 50 µM in series [2] (setting [4]) was 49 ×10⁻⁶ cm/s.
In series [1] (human, pH 7.4, CL NADPH(+)), `CC[C@H](C)[C@@H]1NC(=O)[C@H](Cc2ccccc2)NC(=O)[C@H](C(C)C)N(C)C(=O)CCCN(C)C(=O)C[C@@H](C(=O)N2CCCCC2)NC(=O)[C@H](Cc2ccccc2)NC(=O)[C@H](CC(C)C)N(C)C(=O)CNC(=O)[C@H](CC(C)C)N(C)C(=O)[C@H](C)N(C)C(=O)[C@H]([C@@H](C)O)NC(=O)[C@H](CC(C)C)NC1=O` [DP-273] ([NMeGABA][NMeV]FILT[NMeA][NMeL]G[NMeL]FD-Piperidide; lactam N-12) yielded a microsomal CLint at 1 uM of 102 µL/min/mg. In addition, the Papp at 18 hours, 50 µM in series [2] (pH 6.5) came out at 21 ×10⁻⁶ cm/s.
Taken in the same sequence, the figures for `CC[C@H](C)[C@@H]1NC(=O)[C@H](Cc2ccccc2)N(C)C(=O)[C@H](Cc2ccccc2)NC(=O)[C@H]([C@@H](C)O)NC(=O)[C@H](C(C)C)N(C)C(=O)[C@H](CC(C)C)NC(=O)[C@H](CC(C)C)N(C)C(=O)CCCN(C)C(=O)C[C@@H](C(=O)N2CCCCC2)NC(=O)[C@H](C)NC(=O)[C@H](C)N(C)C1=O` [DP-274] ([NMeGABA][NMeL]L[NMeV]TF[NMeF]I[NMeA]AD-Piperidide; lactam N-11) were 183 µL/min/mg and 25 ×10⁻⁶ cm/s.
Taken in the same sequence, the figures for `CC[C@H](C)[C@@H]1NC(=O)[C@H](CC(C)C)N(C)C(=O)[C@H](CC(C)C)N(C)C(=O)[C@H](C)NC(=O)CCCN(C)C(=O)C[C@@H](C(=O)N2CCCCC2)NC(=O)[C@H](CC(C)C)N(C)C(=O)[C@H](Cc2ccccc2)N(C)C(=O)CN(C)C(=O)[C@H]([C@@H](C)O)NC(=O)[C@H](Cc2ccccc2)N(C)C1=O` [DP-275] ([NMeGABA]A[NMeL][NMeL]I[NMeF]T[Sar][NMeF][NMeL]D-Piperidide; lactam N-11) were 440 µL/min/mg and 36 ×10⁻⁶ cm/s.
The like results for `CC(C)C[C@H]1C(=O)N[C@@H](C)C(=O)N(C)[C@@H](Cc2ccccc2)C(=O)N2CCC[C@H]2C(=O)N(C)[C@@H](CC(C)C)C(=O)N(C)[C@@H](C(C)C)C(=O)N[C@H](C(=O)N2CCCCC2)CC(=O)N(C)CCCC(=O)N[C@@H]([C@@H](C)O)C(=O)N(C)CC(=O)N(C)[C@@H](Cc2ccccc2)C(=O)N1C` [DP-276] ([NMeGABA]T[Sar][NMeF][NMeL]A[NMeF]P[NMeL][NMeV]D-Piperidide; lactam N-11) were, in that order, 68 µL/min/mg and 19 ×10⁻⁶ cm/s.
Take `CC(C)C[C@H]1C(=O)N(C)[C@@H](C(C)C)C(=O)N[C@@H](Cc2ccccc2)C(=O)N[C@H](C(=O)N2CCCCC2)CC(=O)N(C)CCCC(=O)N[C@@H](COC(C)(C)C)C(=O)N(C)[C@@H](CC(C)C)C(=O)N(C)[C@@H](Cc2ccccc2)C(=O)N[C@@H]([C@@H](C)O)C(=O)NCC(=O)N1C` [DP-277] ([NMeGABA]S(tBu)[NMeL][NMeF]TG[NMeL][NMeV]FD-Piperidide; lactam N-10): the microsomal CLint at 1 uM in series [1] (setting [3]) worked out at 389 µL/min/mg. In series [2] (setting [4]), the Papp at 18 hours, 50 µM was found to be 38 ×10⁻⁶ cm/s.
Regarding `CC[C@H](C)[C@@H]1NC(=O)[C@H](C)N(C)C(=O)C[C@@H](C(=O)N(C)[C@@H](Cc2ccccc2)C(=O)N[C@@H](C)C(=O)N2CCCCC2)NC(=O)[C@H](CC(C)C)N(C)C(=O)[C@H](CC(C)C)NC(=O)[C@@H]2CCCN2C(=O)CNC(=O)[C@H](CC(C)C)N(C)C(=O)[C@H](Cc2ccccc2)N(C)C(=O)[C@H](Cc2ccccc2)NC(=O)[C@H]([C@@H](C)O)NC1=O` [DP-280] ([NMeA]ITF[NMeF][NMeL]GPL[NMeL]D[NMeF]A-Piperidide; lactam N-11), in series [1] (human, pH 7.4, CL NADPH(+)), the microsomal CLint at 1 uM was found to be 28 µL/min/mg. In series [2] (pH 6.5), this molecule had a Papp at 18 hours, 50 µM of 21 ×10⁻⁶ cm/s.
